{
  "source": "patent US11840686B2",
  "about": "“Modulation of prekallikrein (PKK) expression” (Ionis Pharmaceuticals, Inc., priority 2013, dated 2023)",
  "key": {"[1]": {"experiment": "Hematological parameters in cynomolgus monkeys (Example 8)", "conditions": "cynomolgus monkey, 40 mg/kg sc, day 87 or day 88", "experimental": "(§1) Prior to the study, the monkeys were kept in quarantine for a 30-day period, during which the animals were observed daily for general health. The monkeys were 2-4 years old and weighed between 2 and 4 kg. Ten groups of four randomly assigned male cynomolgus monkeys each were injected subcutaneously with ISIS oligonucleotide or PBS. PBS solution or ISIS oligonucleotides at a dose of 40 mg/kg were administered initially with a loading regimen consisting of four doses on the first week of the study (days 1, 3, 5, and 7), followed by a maintenance regimen consisting of once weekly administration starting on Day 14 (weeks 2 to 13). Subcutaneous injections were performed in clock-wise rotations at 4 sites on the back; one site per dose. The injection sites were delineated by tattoo, while sedated using ketamine, and were separated by a minimum of 3 cm.\nTo evaluate any effect of ISIS oligonucleotides in cynomolgus monkeys on hematologic parameters, blood samples of approximately 1.2 mL of blood was collected pre-dose and on day 87 or day 88 from each of the available study animals in tubes containing K2-EDTA. Samples were analyzed for red blood cell (RBC) count, white blood cells (WBC) count, platelet count, hemoglobin content and hematocrit, using an ADVIA2120i hematology analyzer (SIEMENS, USA)."}, "[2]": {"experiment": "Urine protein/creatinine ratio in cynomolgus monkeys (Example 8)", "conditions": "cynomolgus monkey, 40 mg/kg sc", "experimental": "as §1\nKidney function was also assessed by urinalysis. Fresh urine from all animals was collected using a clean cage pan on wet ice. Food was removed overnight the day before fresh urine collection was done but water was supplied. The total protein and creatinine levels were measured using a Toshiba 120FR NEO automated chemistry analyzer (Toshiba Co., Japan) and the protein to creatinine ratio was calculated."}, "[3]": {"test_system": "human PKK mRNA", "experiment": "Antisense inhibition of human PKK mRNA in HepaRG cells, 1,000 nM, MOE/deoxy/cEt oligonucleotides (Example 3)", "assay_type": "cell-based", "procedure,_shortened": "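HepaRG cells at 20,000 per well electroporated with 1,000 nM 16-mer MOE/cEt/deoxy gapmers (phosphorothioate, 5-methylcytosine). After about 24 h, PKK mRNA measured by qRT-PCR with primer probe set RTS3454, normalized to RIBOGREEN total RNA. Reported as percent inhibition versus untreated cells.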"}, "[4]": {"test_system": "mouse PKK mRNA", "experiment": "Antisense inhibition of murine PKK mRNA in mouse primary hepatocytes (Example 9)", "assay_type": "cell-based", "conditions": "Cytofectin; for % inhibition of mouse PKK mRNA levels: approx. 24 hours", "procedure": "Antisense oligonucleotides targeting a murine PKK nucleic acid were designed and tested for their effects on PKK mRNA in vitro. Cultured mouse primary hepatocytes at a density of 10,000 cells per well were transfected using Cytofectin reagent with 12.5 nM, 25.0 nM, 50.0 nM, 100.0 nM, and 200.0 nM of antisense oligonucleotide. After a treatment period of approximately 24 hours, RNA was isolated from the cells and mouse PKK mRNA levels were measured by quantitative real-time PCR using the murine primer probe set RTS3313 (forward sequence […], designated herein as SEQ ID NO: 2228; reverse sequence […], designated herein as SEQ ID NO: 2229; probe sequence […], designated herein as SEQ ID NO: 2230). PKK mRNA levels were adjusted according to total RNA content, as measured by RIBOGREEN.\nThe chimeric antisense oligonucleotides were designed as 5-10-5 MOE gapmers. The gapmers are 20 nucleotides in length, wherein the central gap segment is comprised of ten 2′-deoxynucleosides and is flanked on both sides (in the 5′ and 3′ directions) by wings comprising 5 nucleosides each. Each nucleoside in the 5′ wing segment and each nucleoside in the 3′ wing segment has a 2′-O-methoxyethyl modification. The internucleoside linkages throughout each gapmer are phosphorothioate linkages. All cytosine residues throughout each gapmer are 5-methylcytosines.\nISIS 482584 is targeted to SEQ ID NO: 11 (GENBANK Accession No. NM_008455.2) and has a target start site of 1586 and a target stop site of 1605. “Target start site” indicates the 5′-most nucleotide to which the gapmer is targeted. “Target stop site” indicates the 3′-most nucleotide to which the gapmer is targeted."}, "[5]": {"test_system": "vascular permeability induced by ISIS 461756", "experiment": "C1-INH antisense oligonucleotide-induced vascular permeability, Evans Blue OD600 (Example 18)", "assay_type": "in vivo, mouse", "procedure": "Vascular permeability induced by ISIS 461756, an antisense oligonucleotide which targets murine C1 inhibitor mRNA, increases vascular permeability in mice and replicates the pathology of hereditary angioedema. The effect of ISIS 482584 on this model was evaluated.\nOne group of 8 mice was treated with 40 mg/kg ISIS 482584 administered subcutaneously twice a week for 3 weeks (weekly dose of 80 mg/kg). A second group of 8 mice was treated with 40 mg/kg of the control oligonucleotide, ISIS 141923, administered subcutaneously twice a week for 3 weeks (weekly dose of 80 mg/kg). A third group of 8 mice was treated with PBS administered subcutaneously twice a week for 3 weeks. On day 14, all the groups were treated with 12.5 mg/kg ISIS 461756 administered subcutaneously twice a week for 3 weeks (weekly dose of 25 mg/kg). A control group of mice was treated with PBS administered subcutaneously twice a week for 3 weeks but was not administered ISIS 461756.\nAt the end of the treatment period, all the groups were injected with 30 mg/kg of Evans Blue solution into the tail vein. The mice were sacrificed 30 min after the Evans Blue solution administration and colons, feet, ears, and intestines were harvested. The liver was also harvested for RNA analysis.\nThe harvested tissues from the feet, colon, and intestines were placed in formamide solution overnight to leach out the Evans Blue dye. The formamide solution containing feet tissue was heated to 55° C. and left overnight. The color intensity of the dye-infused formamide solution was then measured at OD600 nm. The data is presented in Table 80 as percent increase or reduction compared to the PBS control not treated with ISIS 461756."}, "[6]": {"conditions": "Evans Blue OD600, all groups ISIS 461756 25 mg/kg/wk, pretreatment PBS or oligonucleotide 80 mg/kg/wk"}},
  "note": "Strand notation (5' to 3'): a small letter for the sugar, then the base; units joined by * are phosphorothioate-linked, units joined directly phosphodiester-linked; [ ] holds rarer units or linkages, { } end groups; capitals alone tell only the bases. e = 2'-O-(2-methoxyethyl) (MOE); [5mC] = 5-methylcytosine; d = 2'-deoxy (DNA)",
  "data": [
    {"substance": "Tes Ges mCes Aes Aes Gds Tds mCds Tds mCds Tds Tds Gds Gds mCds Aes Aes Aes mCes Ae [ISIS 546254]", "values": [
      {"measurement": "HCT", "setting": "[1]", "value": 41, "unit": "%"},
      {"measurement": "Hemoglobin", "setting": "[1]", "value": 12.4, "unit": "g/dL"},
      {"measurement": "Platelets", "setting": "[1]", "value": 436000, "unit": "µL⁻¹"},
      {"measurement": "RBC", "setting": "[1]", "value": "5.3e+06", "unit": "µL⁻¹"},
      {"measurement": "WBC", "setting": "[1]", "value": 11000, "unit": "µL⁻¹"},
      {"measurement": "Urine protein/creatinine ratio", "setting": "[2]", "value": 0.04}
    ]},
    {"substance": "531231 (eT*eA*eT*e[5mC]*eA*d[5mC]*dT*dG*dT*dA*d[5mC]*dT*dA*dG*dT*eT*eT*e[5mC]*e[5mC]*eT) [compound 531231]", "values": [
      {"measurement": "% inhibition", "setting": "[3]; HepaRG cells, 1,000 nM antisense oligonucleotide, Table 29", "value": 46, "unit": "%"},
      {"measurement": "% inhibition", "setting": "[3]; HepaRG cells, electroporation with 1,000 nM antisense oligonucleotide, approx. 24 hours, PKK mRNA by RT-PCR (RTS3454), relative to untreated control cells, Table 25 experiment", "value": 19, "unit": "%"},
      {"measurement": "% inhibition", "setting": "[3]; HepaRG cells, electroporation with 1,000 nM antisense oligonucleotide, approx. 24 hours, PKK mRNA by RT-PCR (RTS3454), relative to untreated control cells, Table 26 experiment", "value": 42, "unit": "%"},
      {"measurement": "% inhibition", "setting": "[3]; HepaRG cells, electroporation with 1,000 nM antisense oligonucleotide, approximately 24 hours, primer probe set RTS3454, relative to untreated control cells, experiment of Table 23", "value": 16, "unit": "%"},
      {"measurement": "% inhibition", "setting": "[3]; HepaRG cells, electroporation with 1,000 nM antisense oligonucleotide, approximately 24 hours, primer probe set RTS3454, relative to untreated control cells, experiment of Table 24", "value": 0, "unit": "%"},
      {"measurement": "% inhibition", "setting": "[3]; PKK mRNA, HepaRG cells, 1,000 nM antisense oligonucleotide, Table 31", "value": 48, "unit": "%"},
      {"measurement": "% inhibition", "setting": "[3]; Table 21 experiment, HepaRG cells, electroporation with 1,000 nM antisense oligonucleotide, approx. 24 hours, PKK mRNA by RT-PCR (RTS3454), relative to untreated control cells", "value": 62, "unit": "%"},
      {"measurement": "% inhibition", "setting": "[3]; Table 22 experiment, HepaRG cells, electroporation with 1,000 nM antisense oligonucleotide, approx. 24 hours, PKK mRNA by RT-PCR (RTS3454), relative to untreated control cells", "value": 75, "unit": "%"},
      {"measurement": "% inhibition", "setting": "[3]; Table 27, HepaRG cells, 1,000 nM antisense oligonucleotide, human PKK mRNA", "value": 72, "unit": "%"},
      {"measurement": "% inhibition", "setting": "[3]; Table 28, HepaRG cells, 1,000 nM antisense oligonucleotide, human PKK mRNA", "value": 46, "unit": "%"},
      {"measurement": "% inhibition", "setting": "[3]; Table 30, human PKK mRNA, HepaRG cells, 1,000 nM antisense oligonucleotide", "value": 46, "unit": "%"}
    ]},
    {"substance": "ISIS 482584: 5-10-5 MOE gapmer targeting murine PKK, GGCATATTGGTTTTTGGAAT; SEQ ID NO: 2244 (antisense eG*eG*e[5mC]*eA*eT*dA*dT*dT*dG*dG*dT*dT*dT*dT*dT*eG*eG*eA*eA*eT)", "values": [
      {"measurement": "% inhibition of mouse PKK mRNA levels", "setting": "[4]; 12.5 nM", "value": 0, "unit": "%"},
      {"measurement": "% inhibition of mouse PKK mRNA levels", "setting": "[4]; 25.0 nM", "value": 47, "unit": "%"},
      {"measurement": "% inhibition of mouse PKK mRNA levels", "setting": "[4]; 50.0 nM", "value": 27, "unit": "%"},
      {"measurement": "% inhibition of mouse PKK mRNA levels", "setting": "[4]; 100.0 nM", "value": 60, "unit": "%"},
      {"measurement": "% inhibition of mouse PKK mRNA levels", "setting": "[4]; 200.0 nM", "value": 82, "unit": "%"},
      {"measurement": "IC50", "setting": "[4]; 12.5-200.0 nM, ~24 h, read-out: half maximal inhibitory concentration (IC50)", "value": 84, "unit": "nM"},
      {"measurement": "vascular permeability induced by ISIS 461756", "setting": "[5]; 40 mg/kg s.c. twice a week for 3 weeks", "value": "prevented vascular permeability induced by ISIS 461756"},
      {"measurement": "Percent change in vascular permeability compared to the untreated PBS control, Colon", "setting": "[5]; [6]", "value": "−23", "unit": "%"},
      {"measurement": "Percent change in vascular permeability compared to the untreated PBS control, Feet", "setting": "[5]; [6]", "value": 2, "unit": "%"},
      {"measurement": "Percent change in vascular permeability compared to the untreated PBS control, Intestines", "setting": "[5]; [6]", "value": "−25", "unit": "%"}
    ]}
  ]
}
